Values quoted from earlier work in PubChem BioAssay AID1259410 (Chemical Carcinogenesis Research Information System (CCRIS), 2018).

Test system: rodent tumor promotion studies, tumor incidence
Experiment: CCRIS tumor promotion studies
From the text: The CCRIS database contains chemical records with carcinogenicity, mutagenicity, tumor promotion, and tumor inhibition test results. It was developed by the National Cancer Institute (NCI). Data are derived from studies cited in primary journals, current awareness tools, NCI reports, and other sources. Test results have been reviewed by experts in carcinogenesis and mutagenesis.
CCRIS provides historical information from the years 1985 - 2011. It is no longer updated.
This is an archive assay for CCRIS tumor promotion studies.

[1] = Carcinogen: 7,12-DIMETHYLBENZ(A)ANTHRACENE, Doses [Carcinogen]: TOP, Route [Carcinogen]: DERMAL, Route [Promoter]: DERMAL, Species: MOUSE, Strain/Sex: FEMALE

**Q.** With `Oc1ccc(F)cc1` as the compound, how does the outcome [1] read?
**A.** integumentary system (skin)

**Q.** With `CC(=O)O[C@@]12[C@H](OC(=O)/C=C(C)/C=C/C=C(C)/C=C/C3=C(C)CCCC3(C)C)[C@@H](C)[C@@]3(O)[C@@H](C=C(CO)C[C@]4(O)C(=O)C(C)=C[C@@H]34)[C@@H]1C2(C)C` as the compound, how does the outcome (Carcinogen: 7,12-DIMETHYLBENZ[A]ANTHRACENE, 57-97-6, Doses [Carcinogen]: 10 NMOL ONCE, Doses [Promoter]: 0, 2.5, 5 UG IN 0.2 ML ACETONE 2/WK FOR 21 WK BEGINNING 1 WK POST CARCINOGEN (STUDY DURATION: 21 WK), Doses [Promoter]: 0, 2.5, 5 UG IN 0.2 ML ACETONE 2/WK FOR 21 WK BEGINNING 1 WK POST CARCINOGEN (STUDY DURATION: 21 WK), Route [Carcinogen]: DERMAL, Route [Promoter]: DERMAL, Species: MOUSE, Strain/Sex: SENCAR/FEMALE) read?
**A.** skin: papilloma

**Q.** With `C[C@@]12C(=O)OC(=O)[C@]1(C)[C@H]1CC[C@@H]2O1` as the compound, how does the outcome [1] read?
**A.** integumentary system (skin)

**Q.** For `CCOC(=O)C(C)(C)Oc1ccc(Cl)cc1`, which outcome (Carcinogen: DIETHYLNITROSAMINE [55-18-5], Doses [Carcinogen]: 200 MG/KG BW ONCE (STUDY DURATION: 24 WK), Doses [Promoter]: 0, 3000 PPM IN DIET FOR 22 WK BEGINNING 2 WK POST CARCINOGEN DOSE AND 1 WK PRIOR TO 2/3 PARTIAL HEPATECTOMY (STUDY DURAT, Route [Carcinogen]: INTRAPERITONEAL, Route [Promoter]: ORAL, Species: RAT, Strain/Sex: F344/MALE) is on record?
**A.** liver: hepatocellular adenoma

**Q.** And the outcome (Carcinogen: DIETHYLNITROSAMINE [55-18-5], Doses [Carcinogen]: 200 MG/KG BW ONCE (STUDY DURATION: 48 WK), Doses [Promoter]: 0, 3000 PPM IN DIET FOR 46 WK BEGINNING 2 WK POST CARCINOGEN DOSE AND 1 WK PRIOR TO 2/3 PARTIAL HEPATECTOMY (STUDY DURAT, Route [Carcinogen]: INTRAPERITONEAL, Route [Promoter]: ORAL, Species: RAT, Strain/Sex: F344/MALE)?
**A.** liver: hepatocellular adenoma

**Q.** What about the outcome (Carcinogen: DIETHYLNITROSAMINE [55-18-5], Doses [Carcinogen]: 200 MG/KG BW ONCE (STUDY DURATION: 52 WK), Doses [Promoter]: 0, 3000 PPM IN DIET FOR 46 WK BEGINNING 2 WK POST CARCINOGEN DOSE AND 1 WK PRIOR TO 2/3 PARTIAL HEPATECTOMY (STUDY DURAT, Route [Carcinogen]: INTRAPERITONEAL, Route [Promoter]: ORAL, Species: RAT, Strain/Sex: F344/MALE) of the same compound?
**A.** liver: hepatocellular adenoma

**Q.** What about the outcome (Carcinogen: DIETHYLNITROSAMINE, 55-18-5, Doses [Carcinogen]: 10 MG/KG IN SALINE ONCE 24 HR AFTER RECEIVING 70% PARTIAL HEPATECTOMIES, Doses [Promoter]: 0, 0.01% IN DIET FOR DURATION OF STUDY BEGINNING 2 WK POST CARCINOGEN DOSE (STUDY DURATION: 18 MO), Route [Carcinogen]: GAVAGE, Route [Promoter]: ORAL, Species: RAT, Strain/Sex: SPRAGUE-DAWLEY/FEMALE) of the same compound?
**A.** liver: hepatocellular carcinoma

**Q.** And the outcome (Carcinogen: DIETHYLNITROSAMINE, 55-18-5, Doses [Carcinogen]: 100 PPM IN DRINKING WATER FOR 2 WK, Doses [Promoter]: 0, 0.5% IN DIET BEGINNING 1 WK POST LAST CARCINOGEN DOSE AND CONTINUING FOR DURATION OF STUDY (STUDY DURATION: 32 WK), Route [Carcinogen]: ORAL, Route [Promoter]: ORAL, Species: RAT, Strain/Sex: WISTAR/MALE)?
**A.** liver: hepatocellular carcinoma

**Q.** What about the outcome (Carcinogen: DIETHYLNITROSAMINE, 55-18-5, Doses [Carcinogen]: 150 MG/KG BW ONCE, Doses [Promoter]: 0, 0.1% IN DIET FOR 37 WK BEGINNING 2 WK POST CARCINOGEN TREATMENT (STUDY DURATION: 39 WK), Route [Carcinogen]: INTRAPERITONEAL, Route [Promoter]: ORAL, Species: RAT, Strain/Sex: F344/MALE) of the same compound?
**A.** liver: adenoma

**Q.** Which outcome [1] does the source give for `CCCCCCCCCCCCO` here?
**A.** integumentary system (skin)

**Q.** With `CC(C(=O)O)c1ccc(-c2ccccc2)c(F)c1` (configuration not stated) as the compound, how does the outcome (Carcinogen: N-METHYL-N'-NITRO-N-NITROSOGUANIDINE, 70-25-7, Doses [Carcinogen]: 10 MG ADMINISTERED AS 3 D TREATMENT CYCLES FOLLOWED BY REST PERIODS FOR A TOTAL OF 6 CYCLES (TOTAL DOSE 180 MG DURING 40, Doses [Promoter]: 0.5 MG ADMINISTERED AS 3 D TREATMENT CYCLES FOLLOWED BY REST PERIODS ADMINISTERED CONCURRENTLY WITH CARCINOGEN DURING 40, Route [Carcinogen]: INTRAGASTRIC, Route [Promoter]: GAVAGE, Species: RAT, Strain/Sex: WISTAR/FEMALE) read?
**A.** stomach: adenocarcinoma; small intestine: adenocarcinoma

**Q.** With `C=CCC1(CC=C)C(=O)NC(=O)NC1=O` as the compound, how does the outcome (Carcinogen: N-NITROSODIETHYLAMINE, 55-18-5, Doses [Carcinogen]: 75 MG/KG BW IN 0.85% SALINE ONCE, Doses [Promoter]: 0, 440 PPM IN DIET FOR DURATION OF STUDY BEGINNING 2 WK POST CARCINOGEN DOSE (STUDY DURATION: 78 WK), Route [Carcinogen]: INTRAPERITONEAL, Route [Promoter]: ORAL, Species: RAT, Strain/Sex: F344/MALE) read?
**A.** liver: adenoma, carcinoma

**Q.** Which outcome (Carcinogen: N-ETHYL-N'-NITRO-N-NITROSOGUANIDINE, 4245-77-6, Doses [Carcinogen]: 20 MG/KG BW ONCE AT 3 MO OF AGE, Doses [Promoter]: 100 MG/KG BW IN DMSO BEGINNING AT 3 MO OF AGE, 5X/WK FOR FIRST 2 WK, 3X/WK FOR NEXT 11 WK, 2X/WK FOR STUDY DURATION (STU, Route [Carcinogen]: INTRAUTERINE, Route [Promoter]: SUBCUTANEOUS, Species: RAT, Strain/Sex: DONRYU/FEMALE) does the source give for `CC(C)(C)CC(C)(C)c1ccc(O)cc1` here?
**A.** uterus: adenocarcinoma

**Q.** What about the outcome (Doses [Carcinogen]: 20 MG/KG ONCE AT 11 WK OF AGE, Doses [Promoter]: 0, 100 MG/KG/D IN DMSO, EVERY OTHER DAY POSTNATAL DAYS 1 THROUGH 5 (STUDY DURATION: 15 MO), Route [Carcinogen]: INTRAUTERINE, Route [Promoter]: SUBCUTANEOUS, Species: RAT, Strain/Sex: DONRYU/FEMALE) of the same compound?
**A.** uterus: adenocarcinoma

**Q.** What about the outcome (Doses [Carcinogen]: 20 MG/KG ONCE AT 11 WK OF AGE, Doses [Promoter]: 0, 100 MG/KG/D IN DMSO, EVERY OTHER DAY POSTNATAL DAYS 1 THROUGH 15 (STUDY DURATION: 15 MO), Route [Carcinogen]: INTRAUTERINE, Route [Promoter]: SUBCUTANEOUS, Species: RAT, Strain/Sex: DONRYU/FEMALE) of the same compound?
**A.** uterus: adenocarcinoma

**Q.** With `COc1ccc(N)cc1N` as the compound, how does the outcome (Carcinogen: N-BIS(2-HYDROXYPROPYL)NITROSAMINE, 53609-64-6, Doses [Carcinogen]: 210 MG/100 G, ONCE (STUDY DURATION: 20 WK), Doses [Promoter]: 0, 0.5% IN DIET FOR 19 WK (STUDY DURATION: 20 WK), Route [Carcinogen]: INTRAPERITONEAL, Route [Promoter]: ORAL, Species: RAT, Strain/Sex: WISTAR/MALE) read?
**A.** thyroid gland: carcinoma, adenoma

**Q.** With `CC(C)CCC[C@@H](C)[C@H]1CC[C@H]2[C@@H]3CC=C4C[C@@H](O)CC[C@]4(C)[C@H]3CC[C@]12C` as the compound, how does the outcome (Carcinogen: N-NITROSOBIS(2-OXOPROPYL)AMINE, 60599-38-4, Doses [Carcinogen]: 70 MG/KG ONCE, Doses [Promoter]: 0, 0.5% IN DIET BEGINNING 2 WK POST CARCINOGEN DOSE AND CONTINUING FOR 16 WK (STUDY DURATION: 18 WK), Route [Carcinogen]: SUBCUTANEOUS, Route [Promoter]: ORAL, Species: HAMSTER, Strain/Sex: SYRIAN/FEMALE) read?
**A.** pancreas: adenocarcinoma

**Q.** Which outcome (Carcinogen: N-(4-(5-NITRO-2-FURYL)-2-THIAZOLYL)FORMAMIDE, Doses [Carcinogen]: DIET, Doses [Promoter]: IN DIET, Route [Carcinogen]: ORAL, Route [Promoter]: ORAL, Species: MOUSE, Strain/Sex: FEMALE) does the source give for `N[C@@H](Cc1c[nH]c2ccccc12)C(=O)O` here?
**A.** urinary bladder

**Q.** With `C=C(CC(=O)OC)C(=O)OC` as the compound, how does the outcome (Carcinogen: N-METHYLNITROSOUREA, 684-93-5, Doses [Carcinogen]: 100 PPM IN DRINKING WATER FOR 15 WK, Doses [Promoter]: 0, 0.5% IN DRINKING WATER FOR 37 WK BEGINNING POST CARCINOGEN TREATMENT (STUDY DURATION: 52 WK), Route [Carcinogen]: ORAL, Route [Promoter]: ORAL, Species: RAT, Strain/Sex: F344/MALE) read?
**A.** glandular stomach: adenoma, carcinoma

**Q.** For `CCCC1(CCCCCCCCCCCC(=O)OC2C(C)C3(O)C(C=C(CO)CC4(O)C(=O)C(C)=CC43)C3C(C)(C)C23OC(C)=O)OCC(C)(C)N1[O]` (configuration not stated), which outcome (Carcinogen: 7,12-DIMETHYLBENZ[A]ANTHRACENE, 57-97-6, Doses [Carcinogen]: 100 NMOL ONCE, Doses [Promoter]: 0, 20 NMOL 2/WK FOR 24 WK BEGINNING 1 WK POST CARCINOGEN DOSE (STUDY DURATION: 25 WK), Route [Carcinogen]: DERMAL, Route [Promoter]: DERMAL, Species: MOUSE, Strain/Sex: NMRI/FEMALE) is on record?
**A.** skin: tumor

**Q.** Which outcome (Carcinogen: DIETHYLNITROSAMINE, 55-18-5, Doses [Carcinogen]: 20 MG/KG IN WATER ONCE, Doses [Promoter]: 0, 9 MG/KG 2/WK FOR 27 WK BEGINNING 10 D POST CARCINOGEN DOSE (STUDY DURATION: 30 WK), Route [Carcinogen]: GAVAGE, Route [Promoter]: SUBCUTANEOUS, Species: RAT, Strain/Sex: SPRAGUE-DAWLEY/FEMALE) does the source give for `O=C1C2(Cl)C3(Cl)C4(Cl)C(Cl)(Cl)C5(Cl)C3(Cl)C1(Cl)C5(Cl)C24Cl` (configuration not stated) here?
**A.** liver: hepatocellular carcinoma

**Q.** With `Cc1c2ccccc2c(C)c2c1ccc1ccccc12` as the compound, how does the outcome (Carcinogen: Diethylstilbestrol, 56-53-1, Doses [Carcinogen]: 0, 0.1, 1, 10, 100 ug in 0.05 ml sesame oil once at birth, Doses [Carcinogen]: 0, 0.1, 1, 10, 100 ug in 0.05 ml sesame oil once at birth, Doses [Promoter]: 10 mg in 1 ml sesame oil once by gastric intubation at 50 days of age, study duration 175 or 300 days of age, Route [Carcinogen]: Subcutaneous, Route [Promoter]: Oral, Species: Rat, Strain/Sex: Sprague-Dawley/Female (22/control group; 15; 21; 13; 16/experimental group)) read?
**A.** mammary carcinomas: 50, 54, 91, 39, 19% at 175 days and 77, 87, 100, 85, 75% at
